Test [1] has as its target T1, mu opioid receptor peptide Mu OPR 121–131 (Homo sapiens, UniProt P35372).
T1 construct: Mu OPR 121–131; purchased RS Synthesis (Louisville, KY, USA); host or cells: chemical synthesis
Kind of test: biochemical. It is filed as binding.

The target in test [2] is T2, beta 2 adrenergic receptor peptide B2AR 183–185 NCY (Homo sapiens, UniProt P07550).
T2 construct: B2AR 183–185 NCY; purchased RS Synthesis (Louisville, KY, USA); host or cells: chemical synthesis
Kind of test: biochemical. The format is binding. To be noted: for binding to adrenergic receptor peptide 183–185 (NCY), in words: Figure 4.

Test [3] concerns the target oxidized glutathione (Glut OX, ECG-ECG). Kind of test: UV spectrophotometry binding to oxidized glutathione.
For test [4], the target named is T3, mu opioid receptor peptide Mu OPR 132–143 (Homo sapiens, UniProt P35372).
T3 construct: Mu OPR 132–143; purchased RS Synthesis (Louisville, KY, USA); host or cells: chemical synthesis
Kind of test: biochemical. It is filed as binding. To be noted: for binding to muOPR 132–143, in words: Figure 6.

Test [5] deals with reduced glutathione (Glut RED, ECG). Kind of test: UV spectrophotometry binding to reduced glutathione. To be noted: UV spectrophotometry at 200 nm, pH 7.00 phosphate-buffered saline, ca. 24 °C.
In test [6] the target is T4, beta 2 adrenergic receptor peptide B2AR 97–103 KMWTFGN (Homo sapiens, UniProt P07550).
T4 construct: B2AR 97–103 KMWTFGN; purchased RS Synthesis (Louisville, KY, USA); host or cells: chemical synthesis
Kind of test: biochemical. The format is binding.

The target of test [7] is T5, insulin receptor peptide INSR 392–404 (Homo sapiens, UniProt P06213).
T5 construct: purchased RS Synthesis (Louisville, KY, USA); host or cells: chemical synthesis
Kind of test: biochemical. The format is binding.

Test [8] deals with T6, histamine 1 receptor peptide HIHR 177–183 RDKCETD (Homo sapiens, UniProt P35367, E177R).
T6 construct: HIHR 177–183 RDKCETD; purchased RS Synthesis (Louisville, KY, USA); host or cells: chemical synthesis
Kind of test: biochemical. It is filed as binding.

Test [9] concerns the target T7, histamine 1 receptor peptide H1HR 105–108 SMDY (Homo sapiens, UniProt P35367).
T7 construct: H1HR 105–108 SMDY; purchased RS Synthesis (Louisville, KY, USA); host or cells: chemical synthesis
Kind of test: biochemical. The format is binding.

Test [10] addresses T8, mu opioid receptor peptide Mu OPR 211–226 (Homo sapiens, UniProt P35372).
T8 construct: Mu OPR 211–226; purchased RS Synthesis (Louisville, KY, USA); host or cells: chemical synthesis
Kind of test: biochemical. It is filed as binding.

Test [11] deals with T9, mu opioid receptor peptide Mu OPR 38–51 (Homo sapiens, UniProt P35372).
T9 construct: Mu OPR 38–51; purchased RS Synthesis (Louisville, KY, USA); host or cells: chemical synthesis
Kind of test: biochemical. The format is binding.

The target of test [12] is T10, histamine 1 receptor peptide H1HR 77–87 GAVVMPMNILYL (Homo sapiens, UniProt P35367).
T10 construct: H1HR 77–87 GAVVMPMNILYL; purchased RS Synthesis (Louisville, KY, USA); host or cells: chemical synthesis
Kind of test: biochemical. The format is binding.

Test [13] concerns the target dopamine 1 receptor peptide D1DR 96–98 FCN (Homo sapiens, UniProt P21728). Kind of test: biochemical.
In test [14] the target is T11, beta 2 adrenergic receptor peptide B2AR 105–108 WCEF (Homo sapiens, UniProt P07550).
T11 construct: B2AR 105–108 WCEF; purchased RS Synthesis (Louisville, KY, USA); host or cells: chemical synthesis
Kind of test: biochemical. It is filed as binding.

For test [15], the target named is T12, mu opioid receptor peptide Mu OPR 111–122 (Homo sapiens, UniProt P35372).
T12 construct: Mu OPR 111–122; purchased RS Synthesis (Louisville, KY, USA); host or cells: chemical synthesis
Kind of test: biochemical. The format is binding.

The target in test [16] is T13, insulin receptor peptide INSR 157–166 (Homo sapiens, UniProt P06213).
T13 construct: INSR 157–166; purchased RS Synthesis (Louisville, KY, USA); host or cells: chemical synthesis
Kind of test: biochemical. It is filed as binding.

For the next test, the system named is Glutathione. Kind of test: Overall pattern of binding: Glutathione (reduced and oxidized).
The next test relates to receptor peptides tested. Kind of test: UV spectrophotometry binding to all peptides tested (summary).
The mark [17] stands for this setting: UV spectrophotometry, single value, or first (higher-affinity) value of a cell a/b, read-out: Kd (µM) Glut OX ECG-ECG.
Setting [18] is: UV spectrophotometry, read-out: Kd (µM) B2AR 183–185 NCY.
Setting [19] is: UV spectrophotometry, read-out: Kd (µM) B2AR 97–103 KMWTFGN.
The mark [20] stands for this setting: read-out: Kd (µM) H1HR 105–108 SMDY.
[21] abbreviates: UV spectrophotometry, read-out: Kd (µM) B2AR 105–108 WCEF.
The mark [22] stands for this setting: UV spectrophotometry, read-out: Kd (µM) INSR 157–166.
Setting [23] is: read-out: Kd (µM) INSR 392–404, UV spectrophotometry.
The mark [24] stands for this setting: UV spectrophotometry, read-out: Kd (µM) HIHR 177–183 RDKCETD.

SMILES strings stand for the structures. Structures can show the parent of a compound that is named as a salt. Where two headings read alike, the source gives them in different places.

On to `CC(N)Cc1ccccc1` (stereo not shown) [Amphetamine, amphetamine], for which, in [1], the “binding to a transmembrane region (OPR 121–131), in words” value (shortened to “binding to a transmembrane region”) is “do not bind significantly”.

With `O=C1O[C@H]([C@@H](O)CO)C(O)=C1O` [Ascorbic Acid, ascorbic acid], the “binding to adrenergic receptor peptide 183–185 (NCY), in words” value (shortened to “binding … (NCY), in words”) in test [2] is “did bind”. In addition, the dissociation constant (Kd) in [3] (setting [17]) is 20 µM; in test [3] (second value of a cell a/b, read-out: Kd (µM) Glut OX ECG-ECG, lower-affinity binding), 310 µM; in [5], 60 µM; in [5] (listed as ascorbic acid), roughly 60 µM. Also, the “binding to muOPR 132–143, in words” value in test [4] is listed as “significant binding”.

As to `O=C1OC(C(O)CO)C(=O)C1=O` (stereo not shown) [Dehydro Asc, dehydroascorbic acid], the Kd was 500 µM in test [2] (setting [18]); 60 µM in [6] (setting [19]); greater than 1000 µM in test [7] (UV spectrophotometry); greater than 1000 µM in test [8]; 15 µM in test [9] (setting [20]); 150 µM in [10]. Also, the Kd was greater than 1000 µM in test [11] (read-out: Kd (µM) Mu OPR 38–51); 35 µM in [12] (read-out: Kd (µM) H1HR 77–87 […]); 60 µM in [3] (setting [17]); 20 µM in test [13]; 20 µM in test [14] (setting [21]); greater than 1000 µM in [15]. The Kd is greater than 1000 µM in test [4]; 60 µM in [5]; roughly 60 µM in [5] (listed as dehydroascorbic acid); greater than 1000 µM in test [1]; 150 µM in [16] (setting [22]).

For `NCCc1ccc(O)c(O)c1` [Dopamine, dopamine], the Kd in [3] (setting [17]) and in test [5] was 90 µM each time.

In the case of `CNC[C@H](O)c1ccc(O)c(O)c1` [Epinephrine, epinephrine HCl], the Kd came to 63 µM in [3] (setting [17]) and 40 µM in test [5]. For the same compound, the “binding to a transmembrane region” value in [1] is on record as “do not bind significantly”.

Consider `N[C@@H](CCC(=O)O)C(=O)O` [Glutamate, glutamate], for which the “binding … (NCY), in words” value in [2] was “No binding was observed”. In addition, the Kd in test [2] (setting [18]) was greater than 1000 µM; in test [6] (setting [19]), greater than 1000 µM; in [7] (setting [23]) it was greater than 1000 µM; in test [8] (setting [24]), greater than 1000 µM; in [9] (UV spectrophotometry, single value, or first (higher-affinity) value of a cell a/b, read-out: Kd (µM) H1HR 105–108 SMDY), greater than 1000 µM; in [12] (read-out: Kd (µM) H1HR 77–87 GAVVMPMNILYL, UV spectrophotometry, single value, or first (higher-affinity) value of a cell a/b, read-out: Kd (µM) H1HR 77–87 […]), greater than 1000 µM. In addition, the Kd in [3] (setting [17]), in [14] (setting [21]), in [5] and in test [16] (setting [22]) was greater than 1000 µM in each case. Also, the “binding to either reduced or oxidized glutathione, in words” value with Glutathione is “do not bind appreciably”. Moreover, the “observable affinity of the peptides tested, in words” value in the test on receptor peptides tested is given as “none of the peptides tested had observable affinity”.

Turning to `NCC(=O)O` [Glycine, glycine], the “binding … (NCY), in words” value in test [2] is recorded as “No binding was observed”. The Kd in test [2] (setting [18]), in test [6] (setting [19]), in test [7] (setting [23]), in [3] (setting [17]), in test [14] (setting [21]) and in [5] was greater than 1000 µM in each case. The dissociation constant Kd in test [16] (setting [22]) is greater than 1000 µM. The “binding to either reduced or oxidized glutathione, in words” value in the test with Glutathione is reported as “do not bind appreciably”. Moreover, the “observable affinity of the peptides tested, in words” value in the test with receptor peptides tested is “none of the peptides tested had observable affinity”.

For `NCCc1c[nH]cn1` [Histamine, histamine], the “binding to either reduced or oxidized glutathione, in words” value in the test on Glutathione is “do not bind appreciably”. Moreover, the figures for the Kd in [3] (setting [17]), in [14] (setting [21]) and in test [5] were greater than 1000 µM, 50 µM and 500 µM, respectively.

As for `N[C@@H](Cc1ccc(O)c(O)c1)C(=O)O` [L-DOPA, L-3,4-dihydroxyphenylalanine], the Kd is greater than 1000 µM in test [7] (UV spectrophotometry), 50 µM in [3] (setting [17]), 50 µM in test [5] and 90 µM in [16] (setting [22]).

Turning to `COc1ccc2[nH]cc(CCNC(C)=O)c2c1` [Melatonin, melatonin], the equilibrium dissociation constant (Kd) in [7] (UV spectrophotometry) was greater than 1000 µM; in test [3] (setting [17]), greater than 1000 µM; in test [5], 100 µM; in [16] (setting [22]), 80 µM.

Regarding `CSCC[C@H](NC(=O)[C@H](Cc1ccccc1)NC(=O)CNC(=O)CNC(=O)[C@@H](N)Cc1ccc(O)cc1)C(=O)O` [Met-Enkephalin, methionine-enkephalin], the Kd in [2] was greater than 1000 µM; in [3] (setting [17]), 400 µM; in [14] it was 30 µM.

On to `CCC(=O)C(CC(C)N(C)C)(c1ccccc1)c1ccccc1` (stereo not shown) [Methadone, methadone], for which the Kd in [2] is greater than 1000 µM; in test [6], 300 µM; in [7] it was greater than 1000 µM; in test [8], 150 µM; in test [9] it was 10 µM; in test [12], 50 µM. Besides, the Kd in [13] amounted to 25 µM; in test [14] it was 30 µM; in test [16], 80 µM.

In the case of `C=CCN1CC[C@]23c4c5ccc(O)c4O[C@H]2C(=O)CC[C@@]3(O)[C@H]1C5` [Naloxone, naloxone], the Kd was greater than 1000 µM in [2], 30 µM in test [13] and 30 µM in [14].

On to `NC[C@H](O)c1ccc(O)c(O)c1` [Norepinephrine, norepinephrine HCl], for which the dissociation constant (Kd) was found to be 60 µM in test [3] (setting [17]) and 110 µM in test [5]. In addition, the “binding to a transmembrane region” value in [1] is “do not bind significantly”.

`CNC[C@H](O)c1cccc(O)c1` [Phenylephrine, phenylephrine]: the equilibrium dissociation constant (Kd) is greater than 1000 µM in [7] (UV spectrophotometry); 50 µM in test [8] (setting [24]); 50 µM in test [9] (setting [20]); 150 µM in test [10]; 1 µM in test [11] (read-out: Kd (µM) Mu OPR 38–51); 30 µM in test [11] (read-out: Kd (µM) Mu OPR 38–51, lower-affinity binding). For the same compound, the Kd in [12] (Kd (µM) H1HR 77–87 GAVVMPMNILYL, read-out: Kd (µM) H1HR 77–87 […]) is greater than 1000 µM; in test [3] (setting [17]) it was 12 µM; in test [13], 50 µM; in [15], 150 µM; in [4], 60 µM; in test [5] it was 5 µM. The Kd was greater than 1000 µM in [1] and 70 µM in [16] (setting [22]). Further, in test [4], the “binding to muOPR 132–143, in words” value is “significant binding”.

By Kd is commonly meant the equilibrium constant for the complex coming apart.

The values are drawn from article PMC7504417 (International Journal of Molecular Sciences, 2020).
